Reference: patent US9249131B2, “Modulators of ATP-binding cassette transporters” (Vertex Pharmaceuticals Incorporated, priority 2003, dated 2016)
pEC50: −log10 of the molar value.

Molecular target: T1, ΔF508-CFTR (Homo sapiens, UniProt P13569, DEL508-508)
T1 construct: expressed in transfected cells; host or cells: NIH3T3 mouse fibroblasts stably expressing ΔF508-CFTR for the optical, whole-cell and single-channel assays; Fisher rat epithelial (FRT) cells for Ussing chamber follow-up
Test: Assays for ΔF508-CFTR correction and potentiator properties (membrane potential optical and electrophysiological methods)
Assay type: cell-based
Details: CFTR modulation, % Efficacy
In short: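 NIH3T3 mouse fibroblasts stably expressing ΔF508-CFTR were used, with membrane potential read by DiSBAC2(3)/CC2-DMPE FRET on VIPR. Correctors: 16 h compound exposure at 37 °C, then activation with forskolin plus genistein in Cl⁻-free medium. Potentiators: cells held 24 h at 27 °C, compound added in Cl⁻-free medium, 2-10 μM forskolin 22 s later (final Cl⁻ 28 mM).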

T1 sequence (P13569 with tags, fused parts or gaps DEL508-508): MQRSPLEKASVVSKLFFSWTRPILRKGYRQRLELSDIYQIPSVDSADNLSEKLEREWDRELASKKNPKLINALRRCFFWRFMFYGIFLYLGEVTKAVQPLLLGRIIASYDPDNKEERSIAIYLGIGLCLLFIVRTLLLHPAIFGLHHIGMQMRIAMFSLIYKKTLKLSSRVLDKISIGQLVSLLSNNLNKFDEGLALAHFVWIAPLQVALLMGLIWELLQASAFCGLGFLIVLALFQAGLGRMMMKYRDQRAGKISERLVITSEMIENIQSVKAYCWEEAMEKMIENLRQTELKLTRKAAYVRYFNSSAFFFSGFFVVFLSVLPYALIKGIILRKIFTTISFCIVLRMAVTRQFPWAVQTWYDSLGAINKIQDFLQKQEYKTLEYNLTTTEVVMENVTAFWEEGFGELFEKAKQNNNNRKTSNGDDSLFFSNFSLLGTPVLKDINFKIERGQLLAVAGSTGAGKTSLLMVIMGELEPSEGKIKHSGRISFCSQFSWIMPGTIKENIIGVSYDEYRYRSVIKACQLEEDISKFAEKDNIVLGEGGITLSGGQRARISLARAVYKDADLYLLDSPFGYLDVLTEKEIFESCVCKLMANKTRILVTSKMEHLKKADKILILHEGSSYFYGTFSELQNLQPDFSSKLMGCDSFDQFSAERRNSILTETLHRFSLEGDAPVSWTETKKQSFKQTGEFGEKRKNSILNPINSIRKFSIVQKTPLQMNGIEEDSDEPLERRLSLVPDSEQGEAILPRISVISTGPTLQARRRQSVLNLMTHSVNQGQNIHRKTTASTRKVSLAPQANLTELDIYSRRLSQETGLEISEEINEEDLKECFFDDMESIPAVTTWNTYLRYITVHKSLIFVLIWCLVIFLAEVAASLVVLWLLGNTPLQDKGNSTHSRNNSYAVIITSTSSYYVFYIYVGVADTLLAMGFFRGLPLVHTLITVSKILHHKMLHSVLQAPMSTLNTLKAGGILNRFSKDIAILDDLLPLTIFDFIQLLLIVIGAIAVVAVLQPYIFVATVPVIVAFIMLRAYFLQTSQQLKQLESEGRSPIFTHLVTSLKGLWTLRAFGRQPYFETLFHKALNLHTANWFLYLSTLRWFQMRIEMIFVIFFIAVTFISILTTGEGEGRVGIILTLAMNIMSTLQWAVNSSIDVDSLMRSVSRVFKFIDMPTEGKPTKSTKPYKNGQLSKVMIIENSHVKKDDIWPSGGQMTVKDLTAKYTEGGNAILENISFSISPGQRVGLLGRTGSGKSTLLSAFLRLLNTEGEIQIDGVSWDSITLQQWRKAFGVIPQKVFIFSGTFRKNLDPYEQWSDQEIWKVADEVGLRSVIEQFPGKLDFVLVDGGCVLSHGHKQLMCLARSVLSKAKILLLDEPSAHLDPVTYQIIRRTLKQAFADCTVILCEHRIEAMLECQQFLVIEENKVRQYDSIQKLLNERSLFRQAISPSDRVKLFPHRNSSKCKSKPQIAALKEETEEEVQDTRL

Row | SMILES | % Activity
1 | O=C(Nc1nc(-c2ccccc2)c(-c2ccccc2)s1)C(c1ccccc1)C1CCCCC1 (stereo not shown) [compound 177] | ++ (“++” means between 25% to 100%)
2 | COc1ccccc1Cc1cnc(NC(=O)C(c2ccccc2)C2CCCCC2)o1 (stereo not shown) [compound 179] | ++ (“++” means between 25% to 100%)
3 | COc1ccccc1Cc1cnc(NC(=O)C(c2ccccc2)c2ccccc2)o1 [compound 180] | ++ (“++” means between 25% to 100%)
4 | COc1ccccc1Cc1cnc(NC(=O)C2Cc3ccccc32)o1 (stereo not shown) [compound 181] | ++ (“++” means between 25% to 100%)
5 | COc1ccccc1Cc1cnc(NC(=O)C(C)c2ccccc2)o1 (stereo not shown) [compound 182] | ++ (“++” means between 25% to 100%)
6 | CCC(C(=O)Nc1ncc(Cc2ccccc2OC)o1)c1ccccc1 (stereo not shown) [compound 183] | ++ (“++” means between 25% to 100%)
7 | CCC(C)C(C(=O)Nc1ncc(Cc2ccccc2OC)o1)c1ccccc1 (stereo not shown) [compound 184] | ++ (“++” means between 25% to 100%)
8 | COc1ccccc1Cc1cnc(NC(=O)c2ccccc2)o1 [compound 185] | ++ (“++” means between 25% to 100%)
9 | O=C(Nc1ncc(Cc2ccccc2Cl)o1)C(c1ccccc1)C1CCCCC1 (stereo not shown) [compound 186] | ++ (“++” means between 25% to 100%)
10 | O=C(Nc1ncc(Cc2ccccc2Cl)o1)C(c1ccc(Cl)cc1)c1ccc(Cl)cc1 [compound 187] | ++ (“++” means between 25% to 100%)
11 | O=C(Nc1ncc(Cc2ccccc2Cl)o1)C1Cc2ccccc21 (stereo not shown) [compound 188] | ++ (“++” means between 25% to 100%)
12 | CC(C(=O)Nc1ncc(Cc2ccccc2Cl)o1)c1ccccc1 (stereo not shown) [compound 189] | ++ (“++” means between 25% to 100%)
13 | CCC(C(=O)Nc1ncc(Cc2ccccc2Cl)o1)c1ccccc1 (stereo not shown) [compound 190] | ++ (“++” means between 25% to 100%)
14 | O=C(Nc1ncc(Cc2ccccc2Cl)o1)C(c1ccccc1)C1CCCC1 (stereo not shown) [compound 192] | ++ (“++” means between 25% to 100%)
15 | CC(C)C(C(=O)Nc1ncc(Cc2ccccc2Cl)o1)c1ccccc1 (stereo not shown) [compound 193] | ++ (“++” means between 25% to 100%)
16 | O=C(Cc1ccccc1)Nc1ncc(Cc2ccccc2Cl)o1 [compound 194] | ++ (“++” means between 25% to 100%)
17 | CC[C@H](C(=O)Nc1ncc(Cc2ccccc2Cl)s1)c1ccccc1 [compound 202] | ++ (“++” means between 25% to 100%)
18 | CC[C@@H](C(=O)Nc1ncc(Cc2cccc(Cl)c2)s1)c1ccccc1 [compound 203] | ++ (“++” means between 25% to 100%)

Now from value to compound:

Row | % Activity | SMILES
19 | ++ (“++” means between 25% to 100%) | CC(C)C(C(=O)Nc1nc(-c2ccccc2)c(-c2ccccc2)s1)c1ccccc1 (stereo not shown) [compound 174]
20 | ++ (“++” means between 25% to 100%) | O=C(Nc1nc(-c2ccccc2)c(-c2ccccc2)s1)C(c1ccccc1)C1CCCC1 (stereo not shown) [compound 175]
21 | ++ (“++” means between 25% to 100%) | CCC(C)C(C(=O)Nc1nc(-c2ccccc2)c(-c2ccccc2)s1)c1ccccc1 (stereo not shown) [compound 176]
22 | +++ (“+++” means >100%) | COC(=O)c1ccccc1C(=O)Nc1nc(-c2ccccc2)c(-c2ccccc2)s1 [compound 178]
23 | ++ (“++” means between 25% to 100%) | CCC(C)C(C(=O)Nc1ncc(Cc2ccccc2Cl)o1)c1ccccc1 (stereo not shown) [compound 191]
24 | ++ (“++” means between 25% to 100%) | O=C(Nc1ncc(Cc2ccccc2Cl)o1)c1ccccc1 [compound 195]
25 | ++ (“++” means between 25% to 100%) | COc1ccc(S(=O)(=O)N2CCN(C(C)C(=O)Nc3nc(-c4ccccc4)c(-c4ccccc4)s3)CC2)cc1 (stereo not shown) [compound 196]
26 | ++ (“++” means between 25% to 100%) | CC(C(=O)Nc1nc(-c2ccccc2)c(-c2ccccc2)s1)N1CCN(S(=O)(=O)c2ccc(Cl)cc2)CC1 (stereo not shown) [compound 197]
27 | ++ (“++” means between 25% to 100%) | Cc1ccc(S(=O)(=O)N2CCN(C(C)C(=O)Nc3nc(-c4ccccc4)c(-c4ccccc4)s3)CC2)cc1 (stereo not shown) [compound 198]
28 | +++ (“+++” means >100%) | CC(C(=O)Nc1nc(-c2ccccc2)cs1)N1CCN(S(=O)(=O)c2ccc(Br)cc2)CC1 (stereo not shown) [compound 199]
29 | +++ (“+++” means >100%) | CC[C@@H](C(=O)Nc1ncc(Cc2ccccc2Cl)s1)c1ccccc1 [compound 201]

Same assay, conditions: CFTR modulation, tested using the above methods

Row | SMILES | pEC50
30 | O=C(Nc1nc(-c2ccccc2)c(-c2ccccc2)s1)C(c1ccccc1)C1CCCCC1 (stereo not shown) [compound 177] | 4.60 to 5.00
31 | COc1ccccc1Cc1cnc(NC(=O)C(c2ccccc2)C2CCCCC2)o1 (stereo not shown) [compound 179] | 4.60 to 5.00
32 | COc1ccccc1Cc1cnc(NC(=O)C(c2ccccc2)c2ccccc2)o1 [compound 180] | 4.60 to 5.00
33 | COc1ccccc1Cc1cnc(NC(=O)C2Cc3ccccc32)o1 (stereo not shown) [compound 181] | 4.22 to 4.60
34 | COc1ccccc1Cc1cnc(NC(=O)C(C)c2ccccc2)o1 (stereo not shown) [compound 182] | 4.22 to 4.60
35 | CCC(C(=O)Nc1ncc(Cc2ccccc2OC)o1)c1ccccc1 (stereo not shown) [compound 183] | 4.22 to 4.60
36 | CCC(C)C(C(=O)Nc1ncc(Cc2ccccc2OC)o1)c1ccccc1 (stereo not shown) [compound 184] | 4.60 to 5.00
37 | COc1ccccc1Cc1cnc(NC(=O)c2ccccc2)o1 [compound 185] | 4.60 to 5.00
38 | O=C(Nc1ncc(Cc2ccccc2Cl)o1)C(c1ccccc1)C1CCCCC1 (stereo not shown) [compound 186] | 4.60 to 5.00
39 | O=C(Nc1ncc(Cc2ccccc2Cl)o1)C(c1ccc(Cl)cc1)c1ccc(Cl)cc1 [compound 187] | 4.60 to 5.00
40 | O=C(Nc1ncc(Cc2ccccc2Cl)o1)C1Cc2ccccc21 (stereo not shown) [compound 188] | 4.22 to 4.60
41 | CC(C(=O)Nc1ncc(Cc2ccccc2Cl)o1)c1ccccc1 (stereo not shown) [compound 189] | 4.22 to 4.60
42 | CCC(C(=O)Nc1ncc(Cc2ccccc2Cl)o1)c1ccccc1 (stereo not shown) [compound 190] | 4.22 to 4.60
43 | O=C(Nc1ncc(Cc2ccccc2Cl)o1)C(c1ccccc1)C1CCCC1 (stereo not shown) [compound 192] | 4.60 to 5.00
44 | CC(C)C(C(=O)Nc1ncc(Cc2ccccc2Cl)o1)c1ccccc1 (stereo not shown) [compound 193] | 4.60 to 5.00
45 | O=C(Cc1ccccc1)Nc1ncc(Cc2ccccc2Cl)o1 [compound 194] | 4.22 to 4.60
46 | CC[C@H](C(=O)Nc1ncc(Cc2ccccc2Cl)s1)c1ccccc1 [compound 202] | > 5.00
47 | CC[C@@H](C(=O)Nc1ncc(Cc2cccc(Cl)c2)s1)c1ccccc1 [compound 203] | > 5.00

Further lines, results first:

Row | pEC50 | SMILES
48 | > 5.00 | CC(C)C(C(=O)Nc1nc(-c2ccccc2)c(-c2ccccc2)s1)c1ccccc1 (stereo not shown) [compound 174]
49 | > 5.00 | O=C(Nc1nc(-c2ccccc2)c(-c2ccccc2)s1)C(c1ccccc1)C1CCCC1 (stereo not shown) [compound 175]
50 | > 5.00 | CCC(C)C(C(=O)Nc1nc(-c2ccccc2)c(-c2ccccc2)s1)c1ccccc1 (stereo not shown) [compound 176]
51 | > 5.00 | COC(=O)c1ccccc1C(=O)Nc1nc(-c2ccccc2)c(-c2ccccc2)s1 [compound 178]
52 | > 5.00 | CCC(C)C(C(=O)Nc1ncc(Cc2ccccc2Cl)o1)c1ccccc1 (stereo not shown) [compound 191]
53 | > 5.00 | O=C(Nc1ncc(Cc2ccccc2Cl)o1)c1ccccc1 [compound 195]
54 | > 5.00 | COc1ccc(S(=O)(=O)N2CCN(C(C)C(=O)Nc3nc(-c4ccccc4)c(-c4ccccc4)s3)CC2)cc1 (stereo not shown) [compound 196]
55 | > 5.00 | CC(C(=O)Nc1nc(-c2ccccc2)c(-c2ccccc2)s1)N1CCN(S(=O)(=O)c2ccc(Cl)cc2)CC1 (stereo not shown) [compound 197]
56 | > 5.00 | Cc1ccc(S(=O)(=O)N2CCN(C(C)C(=O)Nc3nc(-c4ccccc4)c(-c4ccccc4)s3)CC2)cc1 (stereo not shown) [compound 198]
57 | > 5.00 | CC(C(=O)Nc1nc(-c2ccccc2)cs1)N1CCN(S(=O)(=O)c2ccc(Br)cc2)CC1 (stereo not shown) [compound 199]
58 | > 5.00 | CC[C@@H](C(=O)Nc1ncc(Cc2ccccc2Cl)s1)c1ccccc1 [compound 201]
